Assay results reported in US5536645A, “Nutritive medium for the culture of microorganism” (priority 1993, dated 1996).
Like-named read-outs stand apart in the source and are kept apart here. Ends that are not written are not given here.

Assays:
Assay type in all cases: cell-based
[1] = tested on: staphylococci; test: Effect of ethyl oxaloacetate on growth (FIG. 8); conditions: 5 mg/l in FIG. 8
Source text: Ethyl oxaloacetate is described for its stimulatory effect on the growth of numerous species (Pelczar M. J. and Brown J. H. (1951) Synthetic culture media for reference use in dairy bacteriology, J. Milk Food Technol., 14: 90-91 and 97).

[2] = tested on: enterococci; test: Effect of medium constituents and peptides on growth of enterococci; conditions: for growth: addition of peptides to the medium; for base requirements of the enterococci: supplied as precursors
Source text: It is moreover known to affect the activity of the sulfamides and trimethoprim family (Then R. et al., Mecanisme moleculaire de la bactericidie; sulfamides et trimethoprime [Molecular mechanism of bactericidal activity; sulfamides and trimethoprim]. Bactericidie 1990, Editions Maloine, Paris).
The purine and pyrimidine bases can be supplied in several forms, that is to say in the form of precursors, of free bases, of nucleosides or of nucleotides. […] The proportions between purines and pyrimidines were defined in relation to those described for the synthesis of RNA by Neidhart (Neidhart et al. (1990) Physiology of the bacterial cell. A molecular approach. Sinauer associates, inc. U.S.A.), taking account of the absence of thymidine, that is to say purines/pyrimidines in a ratio of between 1.5 and 2.2 and advantageously of 1.8. The final concentrations were then optimized essentially to satisfy the growth of the staphylococci and of the enterococci.

[3] = tested on: P. aeruginosa; test: Equivalent MIC of antibiotics in VITEK cards, gram-negative bacteria (Table 3); conditions: for MIC: Pseudomonas aeruginosa
Procedure: (§1) With the determination of the sensitivity to antibiotics in mind, a suspension of 0.5 MF (Mac Farland) in physiological water was prepared from bacterial colonies selected in Petri dishes, reading being carried out on an ATB 1550 densitometer marketed by BIOMERIEUX (ATB trade mark). The suspension obtained was respectively diluted to 1/100th in the medium of the invention and Mueller-Hinton medium. VITEK cards (VITEK trade mark) containing different antibiotics at 10 concentrations were filled in vacuo into a VITEK apparatus marketed by BIOMERIEUX-VITEK. The cards were incubated for 12 hours in a VITEK incubator/reader marketed by BIOMERIEUX-VITEK. The growth kinetics were visualized and interpreted and an equivalent MIC was determined (equivalent MIC: equivalent minimum inhibitory concentration, that is to say the smallest concentration for which no bacterial growth is detected by the apparatus).
(§2) IST refers to the medium of the invention and MH signifies Mueller-Hinton medium.
(§3) S, I and R respectively signify "sensitive", "intermediate" and "resistant" with reference to the critical concentrations defined by the NCCLS (National Committee for Clinical Laboratory Standards).

[4] = tested on: S. marcescens; test: as above; conditions: for MIC: Serratia marcescens, 12 h
Procedure: as §1, §2, §3

[5] = tested on: E. coli; test: microbe, parasite or virus in culture; conditions: for MIC: Escherichia coli, 12 h, read-out: Equivalent MIC
Procedure: as §1, §2, §3

[6] = tested on: Enterococcus hirae and Enterococcus faecium; test: Effect of tetrapeptide on growth (FIG. 14); conditions: 50 or 100 mg/l of peptide in FIG. 14
Procedure: Curve a corresponds to the results obtained with the medium of the invention without addition of the abovementioned peptide, nor addition of constituent free amino acids of this peptide. Curve b illustrates the results obtained with the addition of amino acids Ala, Gly, Ser, GLu respectively at concentrations of 11, 9, 12.5 and 17.5 mg/l. […] Curve d corresponds to the bacterial growth obtained after addition to the medium of 50 mg/l of the peptide. Curve e illustrates the results obtained after addition of 100 mg/l of the same peptide.
Among the peptides tested, only those showing size a less than or equal to 15 amino acids cause a strong increase in the growth.

[7] = tested on: enterococci and streptococci of group B; test: Effect of lipoic acid on growth (FIG. 6); conditions: 0.01 mg/l in FIG. 6
Source text: FIG. 6 illustrates the effect of lipoic acid on the growth of Enterococcus faecalis.

[8] = tested on: Serratia marcescens; test: Effect of serine concentration on growth (FIG. 1); conditions: serine concentration increased by a factor of 10 in IST medium
Source text: Curve b represents the growth with the IST medium for a concentration of serine increased by a factor of 10. Curve c represents the growth obtained with the Mueller-Hinton medium.
The qualitative and quantitative composition of amino acids was then optimized for the different species in order to obtain growth in conformity with that obtained with the reference Mueller-Hinton medium. […] The final concentrations of amino acids were defined, after having verified their importance on the final biomass, taking account of the biomass obtained in Mueller-Hinton medium.

[9] = tested on: Pseudomonas aeruginosa; test: Effect of L-malic acid on growth (FIG. 11); conditions: 500 mg/l in FIG. 11
Procedure: FIGS. 11 illustrates the effect of L-malic acid on the growth of Pseudomonas aeruginosa, curve a corresponding to the growth obtained with an IST medium devoid of L-malic acid and curve b after addition of a concentration of 500 mg/l of L-malic acid.
(§4) The carbon sources of the medium of the invention are mainly represented by a sugar, preferably D-glucose, and an organic acid, in particular L-malic acid. D-glucose has been retained, taking account of its utilization by a large number of bacterial species with fermentative or non-fermentative metabolism (Stanier R. Y. et al. (1966) The aerobic Pseudomonas: a taxonomic study. J. Gen. Microbiol. 43: 159-271). Its concentration in the medium of the invention was determined to obtain a biomass close to that obtained with the reference Mueller-Hinton medium. […] The respective concentrations of D-glucose and L-malic acid were determined to correspond to the qualities of Mueller-Hinton.

[10] = tested on: non-saccharolytic species, such as Alcaligenes faecalis and Pseudomonas acidovorans; test: Effect of L-malic acid on growth (FIG. 10); conditions: 500 mg/l in FIG. 10
Procedure: as §4

[11] = tested on: Proteus, Morganella, Providencia and Serratia; test: Effect of polyamines on growth; conditions: preferential concentration 0.75 mg/l
Procedure: The polyamines are present in the eukaryotic and prokaryotic cells and participate in numerous biological reactions including the synthesis of nucleic acids and of proteins (see Tabor C. W. and Tabor H. (1985) Polyamines in Microorganisms, Microbiol. Rev. 49: 81-99). Putrescine, spermine and spermidine were tested. […] FIG. 7 illustrates the effect of spermidine on the growth of Proteus mirabilis.

For ethyl oxaloacetate, the growth [1] was “allowing the growth of the staphylococci to be increased without inhibiting that of the other species”.

For EDRPPLFGQGTV, the growth [2] was “interesting results for other strains of Enterococci”.

With `Nc1nc2ncc(CNc3ccc(C(=O)N[C@@H](CCC(=O)O)C(=O)O)cc3)nc2c(=O)[nH]1` [Folic acid, folic acid] the “importance for the growth of enterococci” value ([2]; E. faecalis, E. faecium and E. hirae, 0.005 mg/l in FIG. 5) was “importance for the growth of enterococci”.

In the case of `CC(C)(O/N=C(\C(=O)N[C@@H]1C(=O)N2C(C(=O)[O-])=C(C[n+]3ccccc3)CS[C@H]12)c1csc(N)n1)C(=O)O` [ceftazidim], the “NCCLS Category” value ([3]; AP 9, IST medium) is reported as “R”, the “NCCLS Category” value ([3]; AP 9, MH medium) is reported as “R” and the “NCCLS Category” value ([3]; AP 13, IST medium) is reported as “S”. The “NCCLS Category” value ([3]; AP 13, MH medium) was “S”, the “NCCLS Category” value ([3]; ATCC 27853, IST medium) was “S” and the “NCCLS Category” value ([3]; ATCC 27853, MH medium) was “S”. The “NCCLS Category” value ([3]; CDC 2275, IST medium) was “S”, the “NCCLS Category” value ([3]; CDC 2275, MH medium) was “S” and the MIC ([3]; 12 h, read-out: Equivalent MIC, AP 9, IST medium) was 32 µg/mL. It also gave an MIC ([3]; 12 h, read-out: Equivalent MIC, AP 9, MH medium) of 32 µg/mL, an MIC ([3]; 12 h, read-out: Equivalent MIC, AP 13, IST medium) of 4 µg/mL and an MIC ([3]; 12 h, read-out: Equivalent MIC, AP 13, MH medium) of 4 µg/mL. For the same compound, the MIC ([3]; 12 h, read-out: Equivalent MIC, CDC 2275, IST medium) was 4 µg/mL, the MIC ([3]; 12 h, read-out: Equivalent MIC, CDC 2275, MH medium) was 4 µg/mL and the MIC ([3]; ATCC27853, 12 h, read-out: Equivalent MIC, ATCC 27853, IST medium) was 1 µg/mL. The MIC ([3]; ATCC27853, 12 h, read-out: Equivalent MIC, ATCC 27853, MH medium) was 2 µg/mL, the “NCCLS Category” value ([4]; CDC 2102, IST medium) was “S” and the “NCCLS Category” value ([4]; CDC 2102, MH medium) was “S”. For the same compound, the “NCCLS Category” value ([4]; CDC 2162, IST medium) was “S”, the “NCCLS Category” value ([4]; CDC 2162, MH medium) was “S” and the “NCCLS Category” value ([4]; CDC 2240, IST medium) was “S”. The “NCCLS Category” value ([4]; CDC 2240, MH medium) was “S”, the MIC ([4]; read-out: Equivalent MIC, CDC 2102, IST medium) was 0.5 µg/mL and the MIC ([4]; read-out: Equivalent MIC, CDC 2102, MH medium) was 0.25 µg/mL. For the same compound, the MIC ([4]; read-out: Equivalent MIC, CDC 2162, IST medium) was 2 µg/mL, the MIC ([4]; read-out: Equivalent MIC, CDC 2162, MH medium) was 2 µg/mL and the MIC ([4]; read-out: Equivalent MIC, CDC 2240, IST medium) was 0.5 to 1 µg/mL. For the same compound, the MIC ([4]; read-out: Equivalent MIC, CDC 2240, MH medium) was 1 µg/mL, the “NCCLS Category” value ([5]; CDC 2008, IST medium) was “S” and the “NCCLS Category” value ([5]; CDC 2008, MH medium) was “S”. For the same compound, the “NCCLS Category” value ([5]; CDC 2254, IST medium) was “S”, the “NCCLS Category” value ([5]; CDC 2254, MH medium) was “S” and the MIC ([5]; CDC 2008, IST medium) was under 0.06 µg/mL. It also gave an MIC ([5]; CDC 2008, MH medium) of under 0.06 µg/mL, an MIC ([5]; CDC 2254, IST medium) of 0.5 µg/mL and an MIC ([5]; CDC 2254, MH medium) of 1 µg/mL.

For “Ala-Gly-Ser-Glu (AGSE) [Ala-Gly-Ser-Glu (SEQ ID NO: 1)]”, the growth [6] was “considerable increase in the growth”.

ASDAKAYDTEV was tested, and the growth [2] was “interesting results for other strains of Enterococci”.

In the case of `O=c1cc[nH]c(=O)[nH]1` [uracil], the “base requirements of the enterococci” value [2] is reported as “does not satisfy the base requirements of the enterococci”.

In the case of `O=C(O)CCCCC1CCSS1` (stereo not drawn) [lipoic acid], the growth [7] is reported as “allowing the growth of the enterococci and of the streptococci of group B to be increased to a maximum”.

In the case of `O=c1[nH]cnc2nc[nH]c12` [hypoxanthine], the “base requirements of the enterococci” value [2] is reported as “does not satisfy the base requirements of the enterococci”.

For `N[C@@H](CO)C(=O)O` [serine], the bacterial growth [8] was “near to that obtained with Mueller-Hinton medium”.

For `O=C(O)C[C@H](O)C(=O)O` [L-malic acid], the growth [9] was “increases the growth of Pseudomonas aeruginosa” and the growth [10] was “necessary for the growth of the non-saccharolytic species”.

`NCCCCNCCCN` [Spermidine, spermidine] was tested, and the growth [11] was “chosen according to the results, especially for the growth of Proteus, Morganella, Providencia and Serratia”.
